Assay: xn = mol fraction of the nth substance listed
Details: 101 kPa, Liquid; for viscosity: Falling or rolling sphere viscometry; for mass density: Vibrating tube method

CC(=O)[O-].Cn1cc[nH+]c1 [1-methylimidazolium acetate] + CCO
Details	mass density, 293.15 K [kg/m3]	mass density, 298.15 K [kg/m3]	mass density, 303.15 K [kg/m3]	mass density, 308.15 K [kg/m3]	mass density, 313.15 K [kg/m3]	viscosity, 293.15 K [mPa·s]	viscosity, 298.15 K [mPa·s]	viscosity, 303.15 K [mPa·s]	viscosity, 308.15 K [mPa·s]	viscosity, 313.15 K [mPa·s]
x1 = 0.0495	823.45	819.02	814.55	810.04	805.49	1.366	1.236	1.123	1.024	0.938
x1 = 0.0964	851.37	846.85	842.29	837.69	833.06	1.578	1.421	1.268	1.153	1.052
x1 = 0.2004	902.14	897.55	892.91	888.25	883.55	1.995	1.789	1.612	1.458	1.325
x1 = 0.2986	940.21	935.59	930.94	926.27	921.57	2.485	2.212	1.981	1.784	1.614
x1 = 0.401	972.28	967.67	963.03	958.37	953.69	3.048	2.695	2.399	2.148	1.935
x1 = 0.4973	997.47	992.88	988.27	983.64	978.99	3.642	3.199	2.833	2.524	2.264
x1 = 0.6499	1029.38	1024.83	1020.26	1015.69	1011.1	4.686	4.061	3.576	3.146	2.798
x1 = 0.8003	1053.98	1049.49	1044.97	1040.45	1035.92	5.85	5.024	4.363	3.826	3.384
x1 = 0.8941	1066.93	1062.47	1057.99	1053.51	1049.01	6.855	5.847	5.04	4.357	3.829

CC(=O)[O-].Cn1cc[nH+]c1 [1-methylimidazolium acetate] + CO
Details	mass density, 293.15 K [kg/m3]	mass density, 298.15 K [kg/m3]	mass density, 303.15 K [kg/m3]	mass density, 308.15 K [kg/m3]	mass density, 313.15 K [kg/m3]	viscosity, 293.15 K [mPa·s]	viscosity, 298.15 K [mPa·s]	viscosity, 303.15 K [mPa·s]	viscosity, 308.15 K [mPa·s]	viscosity, 313.15 K [mPa·s]
x1 = 0.05	841.99	837.15	832.29	827.39	822.47	0.818	0.758	0.704	0.657	0.615
x1 = 0.1008	880.4	875.53	870.63	865.7	860.74	1.049	0.964	0.889	0.822	0.763
x1 = 0.1994	936.43	931.59	926.72	921.83	916.92	1.568	1.424	1.317	1.189	1.093
x1 = 0.2997	974.67	969.87	965.05	960.22	955.37	2.134	1.936	1.747	1.585	1.445
x1 = 0.4	1002.67	997.94	993.18	988.42	983.63	2.806	2.428	2.193	1.991	1.822
x1 = 0.4979	1023.14	1018.47	1013.77	1009.07	1004.35	3.486	2.986	2.672	2.399	2.195
x1 = 0.651	1046.77	1042.19	1037.58	1032.97	1028.34	4.706	4.006	3.541	3.133	2.81
x1 = 0.8011	1063.57	1059.06	1054.54	1050	1045.45	6.119	5.207	4.509	3.927	3.454
x1 = 0.9012	1072.29	1067.83	–	1058.86	1054.36	7.161	6.065	5.2	4.485	3.912

CC(=O)[O-].Cn1cc[nH+]c1 [1-methylimidazolium acetate] + CCCCO
Details	mass density, 293.15 K [kg/m3]	mass density, 298.15 K [kg/m3]	mass density, 303.15 K [kg/m3]	mass density, 308.15 K [kg/m3]	mass density, 313.15 K [kg/m3]	viscosity, 293.15 K [mPa·s]	viscosity, 298.15 K [mPa·s]	viscosity, 303.15 K [mPa·s]	viscosity, 308.15 K [mPa·s]	viscosity, 313.15 K [mPa·s]
x1 = 0.0506	828.66	824.7	820.7	816.68	812.62	–	2.579	2.208	1.956	1.741
x1 = 0.1008	847.12	843.04	838.93	834.78	830.61	2.905	2.607	2.251	1.997	1.781
x1 = 0.1979	880.83	876.62	872.36	868.1	863.78	3.194	2.829	2.462	2.182	1.944
x1 = 0.2995	913.82	909.53	905.18	900.8	896.49	3.551	3.124	2.731	2.419	2.15
x1 = 0.4002	943.73	939.37	934.99	930.59	926.17	3.934	3.431	3.011	2.661	2.367
x1 = 0.4999	970.97	966.57	962.15	957.72	953.27	4.413	3.813	3.334	2.922	2.606
x1 = 0.6505	1008.21	1003.78	999.34	994.88	990.41	5.321	4.556	3.936	3.447	3.056
x1 = 0.7977	1040.65	1036.22	1031.77	1027.33	1022.9	6.49	5.533	4.739	4.068	3.538
x1 = 0.9013	1061.34	1056.91	1052.46	1048.01	1043.57	7.367	6.225	5.314	4.553	3.944

CC(=O)[O-].Cn1cc[nH+]c1 [1-methylimidazolium acetate] + O
Details	mass density, 293.15 K [kg/m3]	mass density, 298.15 K [kg/m3]	mass density, 303.15 K [kg/m3]	mass density, 308.15 K [kg/m3]	mass density, 313.15 K [kg/m3]	viscosity, 293.15 K [mPa·s]	viscosity, 298.15 K [mPa·s]	viscosity, 303.15 K [mPa·s]	viscosity, 308.15 K [mPa·s]	viscosity, 313.15 K [mPa·s]
x1 = 0.0496	1050.26	1047.88	1045.35	1042.68	1039.87	2.361	2.05	1.797	1.59	1.419
x1 = 0.0999	1080.12	1076.77	1073.32	1069.76	1066.09	4.352	3.682	3.154	2.73	2.363
x1 = 0.2007	1099.43	1095.11	1090.72	1086.27	1081.75	8.567	7.087	5.755	4.731	4.082
x1 = 0.2985	1099.75	1095.2	1090.61	1085.97	1081.29	11.17	9.095	7.498	6.239	5.265
x1 = 0.3986	1096.26	1091.68	1087.07	1082.42	1077.74	11.62	9.434	7.776	6.521	5.535
x1 = 0.496	1092.17	1087.6	1083	1078.38	1073.73	11.27	9.212	7.655	6.419	5.459
x1 = 0.6467	1087.46	1082.93	1078.39	1073.83	1069.26	10.44	8.538	7.137	6.085	5.234
x1 = 0.7954	1083.49	1079.01	1074.5	1069.99	1065.48	9.391	7.858	6.641	5.663	4.895
x1 = 0.8987	1081.48	1077.03	1072.55	1068.08	1063.6	8.655	7.299	6.193	5.304	4.584

CC(=O)[O-].Cn1cc[nH+]c1 [1-methylimidazolium acetate] + CCCO
Details	mass density, 293.15 K [kg/m3]	mass density, 298.15 K [kg/m3]	mass density, 303.15 K [kg/m3]	mass density, 308.15 K [kg/m3]	mass density, 313.15 K [kg/m3]	viscosity, 293.15 K [mPa·s]	viscosity, 298.15 K [mPa·s]	viscosity, 303.15 K [mPa·s]	viscosity, 308.15 K [mPa·s]	viscosity, 313.15 K [mPa·s]
x1 = 0.0504	827.73	823.56	819.35	815.11	810.83	2.22	1.974	1.753	1.566	1.402
x1 = 0.0999	850.08	845.8	841.47	837.11	832.72	2.359	2.088	1.855	1.656	1.485
x1 = 0.2005	891.09	886.69	882.25	877.78	873.27	2.757	2.429	2.152	1.918	1.718
x1 = 0.3005	926.35	921.89	917.41	912.89	908.35	3.202	2.795	2.481	2.206	1.973
x1 = 0.4013	957.27	952.8	948.29	943.76	939.2	3.698	3.231	2.851	2.517	2.25
x1 = 0.5014	984.26	979.77	975.25	970.72	966.17	4.234	3.682	3.228	2.852	2.536
x1 = 0.6501	1018.37	1013.89	1009.37	1004.85	1000.32	5.113	4.402	3.835	3.363	2.975
x1 = 0.7946	1046.51	1042.04	1037.55	1033.05	1028.55	6.141	5.212	4.517	3.947	3.482
x1 = 0.8952	1063.47	1059.02	1054.56	1050.08	1045.6	7.087	6.009	5.148	4.447	3.905

Source: the NIST ThermoML archive (doi:10.1016/j.jct.2012.01.013)
